# Measurements: patent US10308667B2, “Oxadiazolopyridine derivatives for use as ghrelin O-acyl transferase (GOAT) inhibitors” (Boehringer Ingelheim International GmbH, priority 2016, dated 2019)
# Molecular target: human GOAT (Homo sapiens (Human), UniProt Q96T53)
# Assay: Determination of hGOAT Activity in HEK293 Cells after Incubation with Test Compound
# Assay type: cell-based
# Details: HEK293 cells stably transfected with preproghrelin and human GOAT; octanoate-BSA 100 μM; acyl-ghrelin in medium by ELISA after 5 hours
# In short: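 HEK293 cells stably expressing preproghrelin and human GOAT were given serum-free medium with 100 μM octanoate-BSA plus compound (0.3% DMSO) for 5 h. Acyl-ghrelin in the medium was quantified by ELISA (A405, standard curve) as % of vehicle. IC50 was fitted from 8 concentrations.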
# Sequence of human GOAT (Q96T53 whole entry): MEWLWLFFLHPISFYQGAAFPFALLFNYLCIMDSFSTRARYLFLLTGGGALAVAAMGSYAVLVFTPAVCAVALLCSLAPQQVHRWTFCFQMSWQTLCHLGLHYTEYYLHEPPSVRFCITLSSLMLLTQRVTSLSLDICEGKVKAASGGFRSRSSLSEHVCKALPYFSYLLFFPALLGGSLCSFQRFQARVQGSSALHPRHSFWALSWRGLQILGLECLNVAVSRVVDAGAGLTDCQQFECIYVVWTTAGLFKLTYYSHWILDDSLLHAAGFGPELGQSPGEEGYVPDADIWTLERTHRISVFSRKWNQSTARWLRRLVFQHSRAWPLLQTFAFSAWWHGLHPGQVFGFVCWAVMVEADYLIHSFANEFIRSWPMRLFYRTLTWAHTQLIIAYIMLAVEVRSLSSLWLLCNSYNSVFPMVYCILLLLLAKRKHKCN
row,Compound,IC50 [nM]
1,"Cc1nc2nonc2c(N)c1Cc1ccc(Br)c(NC2CC(F)(F)C2)n1 [Example 128, 6-[5-Bromo-6-(3,3-difluoro-cyclobutylamino)-pyridin-2-ylmethyl]-5-methyl-[1,2,5]oxadiazolo[3,4-b]pyridin-7-ylamine]",0.096
2,"Cc1nc2nonc2c(N)c1Cc1ccc(C#N)c(N2CCOCC2)n1 [Example 136, 6-(7-Amino-5-methyl-[1,2,5]oxadiazolo[3,4-b]pyridin-6-ylmethyl)-2-morpholin-4-yl-nicotinonitrile]",0.033
3,"Cc1nc2nonc2c(N)c1Cc1ccc(C#N)c(N2CC(C)(O)C2)n1 [Example 138, 6-(7-Amino-5-methyl-[1,2,5]oxadiazolo[3,4-b]pyridin-6-ylmethyl)-2-(3-hydroxy-3-methyl-azetidin-1-yl)-nicotinonitrile]",0.075
4,"Cc1nc2nonc2c(N)c1Cc1ccc(C#N)c(NC2CC(F)(F)C2)n1 [Example 140, 6-(7-Amino-5-methyl-[1,2,5]oxadiazolo[3,4-b]pyridin-6-ylmethyl)-2-(3,3-difluoro-cyclobutylamino)-nicotinonitrile]",0.15
5,"Cc1nc2nonc2c(N)c1Cc1ccc(C#N)c(N2CCNC(=O)CC2)n1 [Example 141, 6-(7-Amino-5-methyl-[1,2,5]oxadiazolo[3,4-b]pyridin-6-ylmethyl)-2-(5-oxo-[1,4]diazepan-1-yl)-nicotinonitrile]",0.14
6,"Cc1nc2nonc2c(N)c1Cc1ccc(C#N)c(N2CC(F)(F)C2)n1 [Example 142, 6-(7-Amino-5-methyl-[1,2,5]oxadiazolo[3,4-b]pyridin-6-ylmethyl)-2-(3,3-difluoro-azetidin-1-yl)-nicotinonitrile]",0.027
7,"Cc1nc2nonc2c(N)c1Cc1ccc(C#N)c(N2CCC(F)(F)C2)n1 [Example 143, 6-(7-Amino-5-methyl-[1,2,5]oxadiazolo[3,4-b]pyridin-6-ylmethyl)-2-(3,3-difluoro-pyrrolidin-1-yl)-nicotinonitrile]",0.046
8,"Cc1nc2nonc2c(N)c1Cc1ccc(N2CCC(F)(F)C2)c(C#N)n1 [Example 150, 6-(7-Amino-5-methyl-[1,2,5]oxadiazolo[3,4-b]pyridin-6-ylmethyl)-3-(3,3-difluoro-pyrrolidin-1-yl)-pyridine-2-carbonitrile]",2.3
9,"Cc1nc2nonc2c(N)c1Cc1ccc(N2CC(F)(F)C2)c(C#N)n1 [Example 151, 6-(7-Amino-5-methyl-[1,2,5]oxadiazolo[3,4-b]pyridin-6-ylmethyl)-3-(3,3-difluoro-azetidin-1-yl)-pyridine-2-carbonitrile]",1.8
10,"Cc1nc2nonc2c(N)c1Cc1ccc(N2CCOCC2)c(C#N)n1 [Example 152, 6-(7-Amino-5-methyl-[1,2,5]oxadiazolo[3,4-b]pyridin-6-ylmethyl)-3-morpholin-4-yl-pyridine-2-carbonitrile]",0.6
11,"Cc1nc2nonc2c(N)c1Cc1ccc(NCCF)c(C#N)n1 [Example 153, 6-(7-Amino-5-methyl-[1,2,5]oxadiazolo[3,4-b]pyridin-6-ylmethyl)-3-(2-fluoro-ethylamino)-pyridine-2-carbonitrile]",0.56
12,"Cc1nc2nonc2c(N)c1Cc1ccc(NCC(F)F)c(C#N)n1 [Example 154, 6-(7-Amino-5-methyl-[1,2,5]oxadiazolo[3,4-b]pyridin-6-ylmethyl)-3-(2,2-difluoro-ethylamino)-pyridine-2-carbonitrile]",0.17
13,"Cc1nc2nonc2c(N)c1Cc1ccc(-n2cc(F)cn2)c(C#N)n1 [Example 155, 6-(7-Amino-5-methyl-[1,2,5]oxadiazolo[3,4-b]pyridin-6-ylmethyl)-3-(4-fluoro-pyrazol-1-yl)-pyridine-2-carbonitrile]",1.2
14,"Cc1nc2nonc2c(N)c1Cc1ccc(-n2ccc(C(F)(F)F)n2)c(C#N)n1 [Example 156, 6-(7-Amino-5-methyl-[1,2,5]oxadiazolo[3,4-b]pyridin-6-ylmethyl)-3-(3-trifluoromethyl-pyrazol-1-yl)-pyridine-2-carbonitrile]",3.5
15,"Cc1nc2nonc2c(N)c1Cc1ccc(-n2cccn2)c(C#N)n1 [Example 157, 6-(7-Amino-5-methyl-[1,2,5]oxadiazolo[3,4-b]pyridin-6-ylmethyl)-3-pyrazol-1-yl-pyridine-2-carbonitrile]",0.26
16,"Cc1nc2nonc2c(N)c1Cc1ccc(C#N)c(C#N)n1 [Example 158, 6-(7-Amino-5-methyl-[1,2,5]oxadiazolo[3,4-b]pyridin-6-ylmethyl)-pyridine-2,3-dicarbonitrile]",1.7
17,"Cc1nc2nonc2c(N)c1Cc1ccc(S(C)(=O)=O)c(O)n1 [Example 159, 6-(7-Amino-5-methyl-[1,2,5]oxadiazolo[3,4-b]pyridin-6-ylmethyl)-3-methanesulfonyl-pyridin-2-ol]",15

# The next lines start with the values.
row,IC50 [nM],Compound
1,0.2,"Cc1nc2nonc2c(N)c1Cc1ccc(C#N)c(NCC2(C)COC2)n1 [Example 135, 6-(7-Amino-5-methyl-[1,2,5]oxadiazolo[3,4-b]pyridin-6-ylmethyl)-2-[(3-methyl-oxetan-3-ylmethyl)-amino]-nicotinonitrile]"
2,0.054,"Cc1nc2nonc2c(N)c1Cc1ccc(C#N)c(N2CC3(COC3)C2)n1 [Example 137, 6-(7-Amino-5-methyl-[1,2,5]oxadiazolo[3,4-b]pyridin-6-ylmethyl)-2-(2-oxa-6-aza-spiro[3.3]hept-6-yl)-nicotinonitrile]"
3,0.02,"Cc1nc2nonc2c(N)c1Cc1ccc(C#N)c(NC2CC2)n1 [Example 139, 6-(7-Amino-5-methyl-[1,2,5]oxadiazolo[3,4-b]pyridin-6-ylmethyl)-2-cyclopropylamino-nicotinonitrile]"
4,0.055,"Cc1nc2nonc2c(N)c1Cc1ccc(C#N)c(NCCC(F)F)n1 [Example 144, 6-(7-Amino-5-methyl-[1,2,5]oxadiazolo[3,4-b]pyridin-6-ylmethyl)-2-(3,3-difluoro-propylamino)-nicotinonitrile]"
5,0.32,"Cc1nc2nonc2c(N)c1Cc1ccc(C#N)c(NCCC(F)(F)F)n1 [Example 145, 6-(7-Amino-5-methyl-[1,2,5]oxadiazolo[3,4-b]pyridin-6-ylmethyl)-2-(3,3,3-trifluoro-propylamino)-nicotinonitrile]"
6,1.1,"Cc1nc2nonc2c(N)c1Cc1ccc(C#N)c(NCC(C)(C)C#N)n1 [Example 146, 6-(7-Amino-5-methyl-[1,2,5]oxadiazolo[3,4-b]pyridin-6-ylmethyl)-2-(2-cyano-2,2-dimethyl-ethylamino)-nicotinonitrile]"
7,0.25,"Cc1nc2nonc2c(N)c1Cc1ccc(C#N)c(NCC2(C)CCOC2)n1 (centres unmarked) [Example 147, 6-(7-Amino-5-methyl-[1,2,5]oxadiazolo[3,4-b]pyridin-6-ylmethyl)-2-[(3-methyl-tetrahydro-furan-3-ylmethyl)-amino]-nicotinonitrile]"
8,0.15,"Cc1nc2nonc2c(N)c1Cc1ccc(C#N)c(NCC(C)(C)C(N)=O)n1 [Example 148, 3-[6-(7-Amino-5-methyl-[1,2,5]oxadiazolo[3,4-b]pyridin-6-ylmethyl)-3-cyano-pyridin-2-ylamino]-2,2-dimethyl-propionamide]"
9,0.027,"Cc1nc2nonc2c(N)c1Cc1ccc(C#N)c(NCCCF)n1 [Example 149, 6-(7-Amino-5-methyl-[1,2,5]oxadiazolo[3,4-b]pyridin-6-ylmethyl)-2-(3-fluoro-propylamino)-nicotinonitrile]"
